Results taken from paper PMC11304236, “A Novel Drug Candidate for Sepsis Targeting Heparanase by Inhibiting Cytokine Storm” (Advanced Science, 2024).

Experiments:
RAW264.7 macrophages = test: Cell surface glycocalyx of LPS-stimulated RAW264.7 macrophages (WGA-FITC, atomic force microscopy); format: cell-based, mouse
Experimental: Lungs were harvested from LPS‐induced and CLP‐induced sepsis model mice, and frozen sections were prepared. HUVECs and RAW264.7 macrophages were incubated with CV122 for 3 h, and TNF‐α (20 ng mL^−1) and LPS (5 µg mL^−1) were used to stimulate cells for 1 h. Lung tissue, HUVECs, and RAW264.7 macrophages were fixed with 4% paraformaldehyde for 10 min before permeabilization with 0.5% Triton X‐100 for 10 min. The membrane was sealed with 4% skimmed milk powder and incubated at room temperature for 50 min. Primary antibodies were rabbit anti‐heparanase polyclonal antibodies overnight at 4 °C. The diluent of the secondary antibody FITC‐WGA‐lectin was kept at room temperature and protected from light for 1 h. Nuclei were stained with DAPI. After 120 s, images were acquired with a confocal microscope (LSM 800, Zeiss, Germany).
HUVECs and RAW264.7 cells in the logarithmic growth phase were digested, centrifuged, and then plated in a six‐well plate at a density of 1 × 10[5] cells per well. CV122 was incubated for 3 h, and cells were stimulated with LPS (5 µg mL^−1) and TNF‐α (20 ng mL^−1) for 5 h. Cell‐covered slides were carefully removed and placed on the stage of the atomic force microscope with needle parameters: elastic coefficient 0.4 N M^−1, sensitivity 65.63 nm V^−1, with otherwise the usual atomic force microscope (Bruker, Billerica, MA) parameters used.

[1] = system: M1 macrophages (F4/80+CD86+); test: Flow cytometry of M1 macrophages in organs of LPS-induced septic mice; format: in vivo, mouse; details: 12 h after LPS 40 mg/kg i.p.
Experimental: (§1) Each group of mice was euthanized 24 h after LPS injection, spleens were harvested, red blood cells were lysed to detect splenocyte apoptosis, and the ratio of CD3^+CD4^+ T cells, CD3^+CD8^+ T cells, CD3^−CD19^+ B cells in spleen cells and lymph nodes quantified. Antibodies were: FITC‐Annexin V and PI; APC‐CD3, FITC‐CD4, PE‐CD8a, and PE‐CD19. Each group of mice was euthanized 12 h after LPS injection, Lung, kidney, and spleens were harvested, red blood cells were lysed to detect the ratio of macrophages in multiple organs, Antibodies were: FITC anti‐mouse F4/80; APC anti‐mouse CD86. Flow cytometry was used to quantify the adhesion molecules ICAM‐1 and VCAM‐1 on the surface of RAW264.7 cells and HUVECs. CV122 (50 µM) was incubated with the cells for 3 h, LPS (5 µg mL^−1) and TNF‐α (20 ng mL^−1) were used to stimulate the cells for 1 h, and the cells were collected. FITC anti‐mouse CD54 antibody and AF647 anti‐mouse CD106 antibody were incubated for 30 min at room temperature in the dark, PBS was added at 1000 rpm, and the cells were centrifuged for 7 min. A 200‐mesh copper mesh was used to filter the cells into a flow cytometer, and a flow cytometer (BD Biosciences) was used for detection.
Figure S6. M1 macrophages in multiple organs of LPS-induced septic mice. […] All results are expressed as mean ± SD (n = 3), *p < 0.05,**p < 0.01, ***p < 0.001, ****p < 0.0001; ns, not significant. […]

HPA = biological target: T1, HPA (Homo sapiens, UniProt Q9Y251); test: Homogeneous time-resolved fluorescence (HTRF) HPA inhibition in vitro; format: biochemical
T1 sequence (Q9Y251 158-543 limits assumed): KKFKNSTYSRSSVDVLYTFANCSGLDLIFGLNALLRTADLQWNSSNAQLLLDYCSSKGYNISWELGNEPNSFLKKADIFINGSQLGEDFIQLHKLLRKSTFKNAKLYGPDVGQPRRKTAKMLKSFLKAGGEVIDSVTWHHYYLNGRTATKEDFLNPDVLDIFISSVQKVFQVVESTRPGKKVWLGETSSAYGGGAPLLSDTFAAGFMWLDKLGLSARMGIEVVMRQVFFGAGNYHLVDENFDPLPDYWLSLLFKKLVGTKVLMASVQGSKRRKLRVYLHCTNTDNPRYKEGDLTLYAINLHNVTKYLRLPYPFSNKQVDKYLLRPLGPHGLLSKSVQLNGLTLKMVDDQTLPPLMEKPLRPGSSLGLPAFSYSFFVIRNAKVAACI
T1 sequence (Q9Y251 36-109 limits assumed): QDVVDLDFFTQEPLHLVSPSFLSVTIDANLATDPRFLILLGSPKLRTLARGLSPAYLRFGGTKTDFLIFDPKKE
Experimental: Active HPA was diluted with Buffer A to 120 ng mL^−1, biot‐HS‐K was diluted with Buffer B (pH 5.5) to 1.4 ng mL^−1, and SA‐d2 was diluted with Buffer C (pH 7.5) to 1 µg mL^−1, CV122 samples were diluted with Buffer A to different concentration gradients. Add 4 µL of sample solution and 3 µL of HPA solution or Buffer A to the micro‐96‐well plate. After incubating at 37 °C for 10 min, the enzyme reaction was started by adding 3 µL of biot‐HS‐K and incubating at 37 °C for 30 min. Then add 10 µL of SA‐d2 solution or Buffer C. After incubating for 15 min at room temperature, the HTRF signal was detected by a microplate reader, which was excited at 384 nm and emitted at 620 nm and 665 nm. The fluorescence intensity ratio of 665 nm/620 nm was used to calculate the average energy transfer rate (ΔF%) of each sample. The positive control system composed of biot‐HS‐K and SA‐d2 should produce the largest ΔF%, while the background fluorescence intensity of the negative control (biot‐HS‐K) should produce the smallest ΔF%.^[ [45] ^]

ICAM-1 and VCAM-1 = ICAM-1 and VCAM-1 on TNF-α-stimulated HUVECs by flow cytometry; format: cell-based, human; details: CV122 50 µM 3 h, TNF-α 20 ng mL−1 1 h
Experimental: as §1

HUVECs = test: Cell survival assay (CCK-8) in HUVECs; format: cell-based, human; details: 50 to 200 µM

Structure (SMILES): COC1OC(COS(=O)(=O)O)C(OC2OC(C(=O)O)C(OC3OC(COS(=O)(=O)O)C(OC4OC(C(=O)O)C(OC5OC(COS(=O)(=O)O)C(O)C(O)C5NS(=O)(=O)O)C(OS(=O)(=O)O)C4O)C(OS(=O)(=O)O)C3NS(=O)(=O)O)C(O)C2OS(=O)(=O)O)C(O)C1NS(=O)(=O)O (centres unmarked) [CV122]
- glycocalyx by WGA-FITC fluorescence (RAW264.7 macrophages): significantly protected the glycocalyx of macrophages
- glycocalyx structure by atomic force microscopy (RAW264.7 macrophages): protected against disruption of the glycocalyx structure
- percentage of M1 macrophages in kidneys and spleen [1]: significantly inhibited the percentage of M1 macrophages
- percentage of M1 macrophages (F4/80+CD86+) in the lung ([1]; **p < 0.01): significantly reduced by CV122
- IC50 rank in HPA inhibition screening (HPA; CV114-CV123 compared with fondaparinux, ****p < 0.0001): lowest IC50 values
- IC50 (HPA; HTRF, in vitro): 2970 nM
- ICAM-1 and VCAM-1 expression (ICAM-1 and VCAM-1): reversed after CV122 treatment
- effect on survival of HUVECs (HUVECs): no significant inhibitory effect
